Data on 35 molecules can be found in US9303042B2, “Triazolothienopyrimidine compound inhibitors of urea transporters and methods of using inhibitors” (The Regents of the University of California, priority 2012, dated 2016).

Read-outs that look alike come from different tables or passages of the source.

One data set deals with T1, UT-B (Mus musculus, UniProt Q8VHL0).
T1 sequence (Q8VHL0 1-384): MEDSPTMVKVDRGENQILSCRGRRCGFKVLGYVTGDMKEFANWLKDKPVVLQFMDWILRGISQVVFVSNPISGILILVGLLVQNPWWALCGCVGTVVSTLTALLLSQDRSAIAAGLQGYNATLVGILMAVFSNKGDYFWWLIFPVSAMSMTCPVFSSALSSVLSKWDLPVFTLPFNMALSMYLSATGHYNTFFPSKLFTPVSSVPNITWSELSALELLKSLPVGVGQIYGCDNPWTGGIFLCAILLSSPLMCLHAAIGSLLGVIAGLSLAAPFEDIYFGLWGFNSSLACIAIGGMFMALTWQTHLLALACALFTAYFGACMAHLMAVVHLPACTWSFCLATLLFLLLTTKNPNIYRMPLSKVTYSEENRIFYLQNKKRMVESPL
Briefly: Erythrocyte lysis assay of UT-B inhibition. In kind it is cell-based. Also noted: Screening was performed using mouse erythrocytes, which strongly express UT-B; endogenous in cells; host or cells: erythrocytes in whole blood of wild-type CD1 mice. As to the method: Screening was performed using mouse erythrocytes, which strongly express UT-B and are highly water permeable because the cells also express aquaporin-1 (AQP1) water channels. The screening method involved assay of erythrocyte lysis in response to a large, outwardly directed gradient of acetamide, a urea analog that is transported efficiently by UT-B. A large, outwardly directed gradient of acetamide causes transient cell swelling, but little cell lysis, because UT-B-facilitated acetamide efflux limits water influx (see FIG. 1A). UT-B inhibition prevents acetamide efflux, allowing unopposed cell swelling and consequent cell lysis, which was recorded by reduced near-infrared light absorption at 710 nm.
Primary screening was done using a collection of 100,000 diverse, drug-like compounds from commercial sources (ChemDiv, San Diego, Calif.; Asinex, Winston-Salem, N.C.). […] Vigorous mixing was achieved by repeated pipetting. Erythrocyte lysis was quantified by absorbance at 710 nm wavelength, made within 5 min after hypo-osmolar shock. […] For analysis of structure-activity relationships >900 commercially available analogs (ChemDiv and Asinex) were tested.

The nature of data set [1]: In vitro metabolic stability in hepatic microsomes. It is filed as in vitro ADME, rat. As to conditions: 10 min, liver microsomes, NADPH, compound 5 μM.
Experimental: Compounds, each at 5 μM, were incubated for specified times at 37° C. with rat liver microsomes (1 mg protein/ml; Sigma-Aldrich, St. Louis, Mo.) in potassium phosphate buffer (100 mM) containing 1 mM NADPH. The mixture was then chilled on ice, and 0.5 ml of ice-cold ethyl acetate was added.
Setting [2] is: Table 1, commercially available analogues, erythrocyte lysis assay, read-out: IC50.

Turning to `NC(=O)C1CCN(c2nc3c(S(=O)(=O)c4ccccc4)nnn3c3ccsc23)CC1` [Compound 2aa], the IC50 on UT-B (setting [2]) came out at 7660 nM. Turning to `COCCCNc1nc2c(S(=O)(=O)c3ccccc3)nnn2c2ccsc12` [Compound 2ab, {3-benzenesulfonyl-thieno[2,3-e][1,2,3]triazolo[1,5-a]pyrimidin-5-yl}-3-methoxypropyl-amine], the IC50 on UT-B (setting [2]) turned out to be 4350 nM. For the same molecule, in data set [1], the “% Remaining after 10 min incubation with liver microsomes” value is 27%.

With `Cc1ccc(S(=O)(=O)c2nnn3c2nc(NCc2ccco2)c2sccc23)cc1` [Compound 2ac, furan-2-ylmethyl-[3-(4-methyl-benzenesulfonyl)-thieno[2,3-e][1,2,3]triazolo[1,5-a]pyrimidin-5-yl]-amine], the IC50 at UT-B (setting [2]) came out at 2150 nM. On the same count and under the same terms, in the case of `Cc1ccc(S(=O)(=O)c2nnn3c2nc(NCC2CCCO2)c2sccc23)cc1` (stereo not drawn) [Compound 2ae, tetrahydrofuran-2-ylmethyl-[3-(4-methyl-benzenesulfonyl)-thieno[2,3-e][1,2,3]triazolo[1,5-a]pyrimidin-5-yl]-amine] it was 5740 nM; in that of `Cc1ccc(S(=O)(=O)c2nnn3c2nc(NCCCOC(C)C)c2sccc23)cc1` [Compound 2af, {3-[4-methyl-benzenesulfonyl]-thieno[2,3-e][1,2,3]triazolo[1,5-a]pyrimidin-5-yl}-3-(1-methylethoxyl)propyl-amine], 11700 nM. Still for that read-out and setting: in the case of `Cc1ccc(S(=O)(=O)c2nnn3c2nc(NC(C)c2ccccc2)c2sccc23)cc1` (stereo not drawn) [Compound 2ag, [3-(4-methyl-benzenesulfonyl)-thieno[2,3-e][1,2,3]triazolo[1,5-a]pyrimidin-5-yl]-(1-phenyl-1-methyl)methyl-amine] it was 11200 nM; in that of `COc1cccc(CNc2nc3c(S(=O)(=O)c4ccc(C)cc4)nnn3c3ccsc23)c1` [Compound 2ah, [3-(4-methyl-benzenesulfonyl)-thieno[2,3-e][1,2,3]triazolo[1,5-a]pyrimidin-5-yl]-(3-methoxy-benzyl)-amine], 2750 nM. With `COCCNc1nc2c(S(=O)(=O)c3ccc(C)cc3)nnn2c2ccsc12` [Compound 2ai, {3-[4-methyl-benzenesulfonyl]-thieno[2,3-e][1,2,3]triazolo[1,5-a]pyrimidin-5-yl}-2-methoxyethyl-amine], the IC50 on UT-B (setting [2]) was 2870 nM. Same read-out and setting: next, `CCN1CCN(c2nc3c(S(=O)(=O)c4ccc(C)cc4)nnn3c3ccsc23)CC1` [Compound 2ak]: 7880 nM; `Cc1ccc(S(=O)(=O)c2nnn3c2nc(NC2CCCC2)c2sccc23)cc1` [Compound 2al]: 6380 nM; `CCN(CC)c1nc2c(S(=O)(=O)c3ccc(C)c(C)c3)nnn2c2ccsc12` [Compound 2ap]: 2490 nM. With `Cc1ccc(S(=O)(=O)c2nnn3c2nc(N2CCC(C(N)=O)CC2)c2sccc23)cc1C` [Compound 2aq], at UT-B (setting [2]), the IC50 was 2120 nM. Same read-out and setting: in the case of `Cc1ccc(S(=O)(=O)c2nnn3c2nc(NC(C)C)c2sccc23)cc1C` [Compound 2av] it was 2190 nM.

With `Cc1ccc(S(=O)(=O)c2nnn3c2nc(NCCCOC(C)C)c2sccc23)cc1C` [Compound 2ax, {3-[3,4-dimethyl-benzenesulfonyl]-thieno[2,3-e][1,2,3]triazolo[1,5-a]pyrimidin-5-yl}-3-(1-methylethoxyl)propyl-amine], the IC50 at UT-B (setting [2]) was 2480 nM. For `COc1cccc(CNc2nc3c(S(=O)(=O)c4ccc(C)c(C)c4)nnn3c3ccsc23)c1` [Compound 2ay, [3-(3,4-dimethyl-benzenesulfonyl)-thieno[2,3-e][1,2,3]triazolo[1,5-a]pyrimidin-5-yl]-(3-methoxy-benzyl)-amine], at UT-B (setting [2]), the IC50 is 3770 nM. On to `COCCNc1nc2c(S(=O)(=O)c3ccc(C)c(C)c3)nnn2c2ccsc12` [Compound 2ba, {3-[3,4-dimethyl-benzenesulfonyl]-thieno[2,3-e][1,2,3]triazolo[1,5-a]pyrimidin-5-yl}-2-methoxyethyl-amine], for which, on UT-B (setting [2]), the IC50 was found to be 2500 nM. Take `Cc1ccc(S(=O)(=O)c2nnn3c2nc(NC2CCCCC2)c2sccc23)cc1C` [Compound 2bb]: the IC50 on UT-B (setting [2]) turned out to be 8190 nM. For `Cc1ccc(S(=O)(=O)c2nnn3c2nc(NCc2ccc(F)cc2)c2sccc23)cc1C` [Compound 2be, [3-(3,4-dimethyl-benzenesulfonyl)-thieno[2,3-e][1,2,3]triazolo[1,5-a]pyrimidin-5-yl]-(4-fluoro-benzyl)-amine], the IC50 on UT-B (setting [2]) stood at 5640 nM. As to `COCCCNc1nc2c(S(=O)(=O)c3ccc(Cl)cc3)nnn2c2ccsc12` [Compound 2bj, {3-[4-chloro-benzenesulfonyl]-thieno[2,3-e][1,2,3]triazolo[1,5-a]pyrimidin-5-yl}-3-methoxypropyl-amine], the IC50 on UT-B (setting [2]) was found to be 2310 nM. Consider `CC(C)c1ccc(S(=O)(=O)c2nnn3c2nc(NCC2CCCO2)c2sccc23)cc1` (stereo not drawn) [Compound 2bk, tetrahydrofuran-2-ylmethyl-[3-(4-isopropyl-benzenesulfonyl)-thieno[2,3-e][1,2,3]triazolo[1,5-a]pyrimidin-5-yl]-amine], for which the IC50 at UT-B (setting [2]) was found to be 2660 nM. Regarding `CCOCCCNc1nc2c(S(=O)(=O)c3ccc(C(C)C)cc3)nnn2c2ccsc12` [Compound 2bl, {3-[4-isopropyl-benzenesulfonyl]-thieno[2,3-e][1,2,3]triazolo[1,5-a]pyrimidin-5-yl}-3-ethoxylpropyl-amine], the IC50 on UT-B (setting [2]) was found to be 4080 nM. As for `CCc1ccc(S(=O)(=O)c2nnn3c2nc(N2CCOCC2)c2sccc23)cc1` [Compound 2bq], the midpoint of inhibition at UT-B, the IC50, lay at 5710 nM. With `CCc1ccc(S(=O)(=O)c2nnn3c2nc(NC2CCCC2)c2sccc23)cc1` [Compound 2bz], the IC50 on UT-B (setting [2]) turned out to be 1540 nM. In the case of `CCc1ccc(S(=O)(=O)c2nnn3c2nc(N2CCN(C)CC2)c2sccc23)cc1` [Compound 2cc], the IC50 on UT-B (setting [2]) amounted to 590 nM.

For `CCc1ccc(S(=O)(=O)c2nnn3c2nc(N2CCN(CC)CC2)c2sccc23)cc1` [Compound 2cd], the IC50 on UT-B (setting [2]) turned out to be 11900 nM. Consider `CCc1ccc(S(=O)(=O)c2nnn3c2nc(NCCN(C)C)c2sccc23)cc1` [Compound 2ch], for which the IC50 at UT-B (setting [2]) was determined as 8460 nM. Regarding `Cc1ccc(C)c(S(=O)(=O)c2nnn3c2nc(N2CCC(C(N)=O)CC2)c2sccc23)c1` [Compound 2ci], on UT-B (setting [2]), the IC50 stood at 3340 nM.

Take `CCOCCCNc1nc2c(S(=O)(=O)c3cc(C)ccc3C)nnn2c2ccsc12` [Compound 2ck, {3-[2,5-dimethyl-benzenesulfonyl]-thieno[2,3-e][1,2,3]triazolo[1,5-a]pyrimidin-5-yl}-3-ethoxypropyl-amine]: the IC50 at UT-B (setting [2]) amounted to 9850 nM. As for `Cc1ccc(C)c(S(=O)(=O)c2nnn3c2nc(NCCCOC(C)C)c2sccc23)c1` [Compound 2cl, {3-[2,5-dimethyl-benzenesulfonyl]-thieno[2,3-e][1,2,3]triazolo[1,5-a]pyrimidin-5-yl}-3-(1-methylethoxyl)propyl-amine], on UT-B (setting [2]), the IC50 was 2060 nM. Regarding `Cc1ccc(C)c(S(=O)(=O)c2nnn3c2nc(NC(C)c2ccccc2)c2sccc23)c1` (stereo not drawn) [Compound 2cm, [3-(2,5-dimethyl-benzenesulfonyl)-thieno[2,3-e][1,2,3]triazolo[1,5-a]pyrimidin-5-yl]-(1-phenyl-1-methyl)methyl-amine], the IC50 at UT-B (setting [2]) came to 702 nM. The same measure, in the same setting: next, `Cc1ccc(C)c(S(=O)(=O)c2nnn3c2nc(NCc2ccc(F)cc2)c2sccc23)c1` [Compound 2cp, [3-(2,5-dimethyl-benzenesulfonyl)-thieno[2,3-e][1,2,3]triazolo[1,5-a]pyrimidin-5-yl]-(4-fluoro-benzyl)-amine]: 671 nM; `Cc1ccc(C)c(S(=O)(=O)c2nnn3c2nc(NCc2ccccc2)c2sccc23)c1` [Compound 2cq, [3-(2,5-dimethyl-benzenesulfonyl)-thieno[2,3-e][1,2,3]triazolo[1,5-a]pyrimidin-5-yl]-benzyl-amine]: 1650 nM; `Cc1ccc(C)c(S(=O)(=O)c2nnn3c2nc(NCc2ccco2)c2sccc23)c1` [Compound 2cs, furan-2-ylmethyl-[3-(2,5-dimethyl-benzenesulfonyl)-thieno[2,3-e][1,2,3]triazolo[1,5-a]pyrimidin-5-yl]-amine]: 2660 nM.

As for `NC(=O)C1CCN(c2nc3c(S(=O)(=O)c4cccc(Cl)c4)nnn3c3ccsc23)CC1` [Compound 2cv], the IC50 at UT-B (setting [2]) worked out at 3140 nM. Turning to `O=S(=O)(c1cccc(Cl)c1)c1nnn2c1nc(NCc1cccs1)c1sccc12` [Compound 2cw, {3-[3-chloro-benzenesulfonyl]-thieno[2,3-e][1,2,3]triazolo[1,5-a]pyrimidin-5-yl}-thiophen-2-ylmethyl-amine], the IC50 on UT-B (setting [2]) came to 2080 nM.
